Test results reported in patent US20050260683A1, “Methods for diagnosing and treating pre-term labor” (University of Hawaii, priority 2002, published 2005).
“Also recorded” adds a separate entry of the source. Like-named read-outs stand apart in the source and are kept apart here.

Assays:
[1] = test system: PBEF gene expression in WISH cells; experiment: PBEF gene expression in IL-1β-stimulated WISH cells with inhibitors, real-time PCR; format: cell-based, human; conditions: IL-1β 1 ng/ml; for effect on IL-1β-induced up-regulation of PBEF: inhibitor over a range of dilutions
Procedure: (§1) Thus, the human anmiotic epithelial-like cell line (WISH) was stimultated by addition of IL-1β (1 ng/ml) or by stretching (20%). In order to show any inhibitory effects on the expression of PBEF, a panel of inhibitors (SN50, Curcumin and PDTC) were added over a range of dilutions to both systems. Gene expression was quantitated by real-time PCR and normalized to 18 s.

PBEF gene expression = conditions: Ognjanovic et al., cited from earlier work
NF-κB = NF-κB translocation in WISH cells, anti-p65 immunolabeling; format: cell-based, human; conditions: after addition of IL-1β
Procedure: as §1
Peak translocation of NF-κB from the cytoplasm to the nucleus occurred one hour after addition of IL-1β and was clearly seen by immunolabeling with an antibody (anti-p65) to one of the subunits of NF-κB. Increased PBEF gene expression also resulted from IL-1β stimulation.

IL-8 = conditions: Keelan et al.; Laham et al.; cited from earlier work
IL-6 = conditions: Keelan et al.; cited from earlier work

Compound | effect on IL-1β-induced up-regulation of PBEF [1] | PBEF gene expression / transcription (PBEF gene expression) | IL-8 transcription (IL-8) | IL-6 transcription (IL-6) | further results
COc1cc(/C=C/C(=O)CC(=O)/C=C/c2ccc(O)c(OC)c2)ccc1O [Curcumin] | prevented the up-regulation of PBEF to varying degrees |  |  |  | 
S=C(S)N1CCCC1 [PDTC] | prevented the up-regulation of PBEF to varying degrees |  |  |  | 
IL-1β: proinflammatory cytokine interleukin-1-beta |  | stimulate; also recorded: induced | stimulate | stimulate | time of peak translocation of NF-κB from the cytoplasm to the nucleus (NF-κB): one hour; PBEF gene expression after stimulation [1]: Increased
IL-6: cytokine interleukin-6 |  | induced |  |  | 
IL-8: cytokine interleukin-8 |  | no such effect |  |  | 
TNF-α |  | induced | stimulate | stimulate | PBEF gene expression / transcription (PBEF gene expression; listed as TNF-A): stimulate
